IC50 data for 28 compounds are collected here from patent US8921383B2, “Thiazolopyrimidine compounds” (Hoffmann-La Roche Inc., priority 2011, dated 2014).

This experiment deals with T1, purified recombinant human SYK360-635 (Homo sapiens, UniProt P43405).
T1 construct: truncated construct of Spleen Tyrosine Kinase aa 360-635; GST; made in house
The experiment in a line: SYK kinase assay: 33P γATP incorporation into biotinylated peptide substrate, IC50 determination. Type of experiment: biochemical. As to conditions: SYK 0.5 nM, ATP 20 μM, DYE peptide 5 μM, 30° C. 15 min; read-out: IC50 h-syk-gst-sf9-c (inactive-dephosphorylated). On the procedure: Determination of IC50 of Spleen Tyrosine Kinase (SYK) Inhibition:
SYK kinase assay is a standard kinase assay adapted to a 96 well plate format. This assay is performed in 96-well format for IC50 determination with […] which represented 10 half log dilutions and a 40 μL reaction volume. The assay measures the incorporation of radiolabeled ^33P γATP into an N-terminally biotinylated peptide substrate, derived from naturally occurring phosphoacceptor consensus sequence (Biotin-11aa DY*E). Phosphorylated products were detected upon termination of reactions with EDTA and the addition of Streptavidin coated beads.
Assay plates: 96-well MultiScreen 0.65 um filter plates (Millipore Cat. No.: MADVNOB10)
BSA: Bovine Serum Albumin Fraction V, fatty acid free (Roche Diagnostics GmbH, Cat. No. 9100221) diluted to a final concentration of 0.1%
Assay Dilution Buffer (ADB): 50 mM HEPES, 0.1 mM EGTA, 0.1 mM Na Vanadate, 0.1 mM β-glycerophosphate, 10 mM MgCl2, 1 mM DTT, 0.1% BSA, pH 7.5
Bead wash buffer: 10 g/L PBS (Phosphate buffered saline) with 2M NaCl+1% phosphoric acid.
DMSO and the mixture was incubated for 10 min at RT.
The kinase reaction was initiated by the addition of 10 μL 4× substrate cocktail containing the DYE peptide substrate [0 or 5 μM], ATP [20 μM] and ^33PγATP [2 μCi/r×n]. After incubation at 30° C. for 15 min, the reaction was terminated by the transfer of 25 μL of the reaction sample to a 96 well 0.65 μm Millipore MADVNOB membrane/plate containing 200 μL 5 mM EDTA and 20% Streptavidine coated beads in PBS.
After the last wash membrane/plates were transferred to an adaptor plate, heat dried for 15 min at 60° C., and 50 μL scintillation cocktail was added to each well and 4 h later the amount of radioactivity was counted in a top counter.

Turning to `COc1ccc(Nc2nc(N3CCC(NC(=O)c4ccc5[nH]ncc5c4)C3)nc3scnc23)cc1OC` (stereo not shown) [Compound I-35, N-(1-(7-(3,4-Dimethoxyphenylamino)thiazolo[5,4-d]pyrimidin-5-yl)pyrrolidin-3-yl)-1H-indazole-5-carboxamide], the IC50 was found to be 418 nM.

Turning to `COc1ccc(Nc2nc(N3CCC(NC(=O)c4ccc(C(N)=O)nc4)C3)nc3scnc23)cc1OC` (stereo not shown) [Compound I-37, N5-(1-(7-(3,4-Dimethoxyphenylamino)thiazolo[5,4-d]pyrimidin-5-yl)pyrrolidin-3-yl)pyridine-2,5-dicarboxamide], the IC50 came out at 912 nM.

Turning to `COC(=O)c1ccc(C(=O)NC2CCN(c3nc(Nc4ccc(OC)c(OC)c4)c4ncsc4n3)C2)cn1` (stereo not shown) [Compound I-38, Methyl 5-(1-(7-(3,4-dimethoxyphenylamino)thiazolo[5,4-d]pyrimidin-5-yl)pyrrolidin-3-ylcarbamoyl)picolinate], the IC50 came to 1950 nM.

Regarding `COc1ccc(Nc2nc(N3CCC(NC(=O)c4ccc(C(=O)O)nc4)C3)nc3scnc23)cc1OC` (stereo not shown) [Compound I-39, 5-(1-(7-(3,4-Dimethoxyphenylamino)thiazolo[5,4-d]pyrimidin-5-yl)pyrrolidin-3-ylcarbamoyl)picolinic acid], the IC50 is 129 nM.

In the case of `COc1ccc(Nc2nc(N3CCCC(C(=O)Nc4ccc5c(c4)CC(=O)N5)C3)nc3scnc23)cc1OC` (stereo not shown) [Compound I-40, 1-(7-(3,4-Dimethoxyphenylamino)thiazolo[5,4-d]pyrimidin-5-yl)-N-(2-oxoindolin-5-yl)piperidine-3-carboxamide], the IC50 was 5410 nM.

In the case of `COc1ccc(Nc2nc(N3CCCC(C(=O)Nc4ccc5[nH]ncc5c4)C3)nc3scnc23)cc1OC` (stereo not shown) [Compound I-41, 1-(7-(3,4-Dimethoxyphenylamino)thiazolo[5,4-d]pyrimidin-5-yl)-N-(1H-indazol-5-yl)piperidine-3-carboxamide], the IC50 worked out at 1690 nM.

As to `COc1ccc(Nc2nc(N3CCCC(C(=O)Nc4ccc(C(=O)O)c(OC)c4)C3)nc3scnc23)cc1OC` (stereo not shown) [Compound I-43, 4-({1-[7-(3,4-Dimethoxy-phenylamino)-thiazolo[5,4-d]pyrimidin-5-yl]-piperidine-3-carbonyl}-amino)-2-methoxy-benzoic acid], the IC50 was found to be 164 nM.

As for `COc1ccc(Nc2nc(N3CCCC(C(=O)Nc4ccc(-c5noc(=O)[nH]5)cc4)C3)nc3scnc23)cc1OC` (stereo not shown) [Compound I-44, 1-(7-(3,4-Dimethoxyphenylamino)thiazolo[5,4-d]pyrimidin-5-yl)-N-(4-(5-oxo-4,5-dihydro-1,2,4-oxadiazol-3-yl)phenyl)piperidine-3-carboxamide], the IC50 was 136 nM.

On to `COc1ccc(Nc2nc(N3CCCC(C(=O)Nc4ccc5cn[nH]c5c4)C3)nc3scnc23)cc1OC` (stereo not shown) [Compound I-45, 1-(7-(3,4-Dimethoxyphenylamino)thiazolo[5,4-d]pyrimidin-5-yl)-N-(1H-indazol-6-yl)piperidine-3-carboxamide], for which the IC50 was determined as 922 nM.

Regarding `COc1ccc(Nc2nc(N3CCCC(C(=O)Nc4ccc5c(c4)CNC5=O)C3)nc3scnc23)cc1OC` (stereo not shown) [Compound I-46, 1-(7-(3,4-Dimethoxyphenylamino)thiazolo[5,4-d]pyrimidin-5-yl)-N-(1-oxoisoindolin-5-yl)piperidine-3-carboxamide], the IC50 turned out to be 1030 nM.

`COc1ccc(Nc2nc(N3CCCC(C(=O)Nc4ccc(C(=O)O)c(O)c4)C3)nc3scnc23)cc1OC` (stereo not shown) [Compound I-47, 4-(1-(7-(3,4-Dimethoxyphenylamino)thiazolo[5,4-d]pyrimidin-5-yl)piperidine-3-carboxamido)-2-hydroxybenzoic acid]: the IC50 is 71 nM.

In the case of `COc1ccc(Nc2nc(N3CCCC(C(=O)NC4CNC(=O)C4)C3)nc3scnc23)cc1OC` (stereo not shown) [Compound I-48, 1-(7-(3,4-Dimethoxyphenylamino)thiazolo[5,4-d]pyrimidin-5-yl)-N-(5-oxopyrrolidin-3-yl)piperidine-3-carboxamide], the IC50 is 4210 nM.

As for `COc1ccc(Nc2nc(N3CCCC(C(=O)Nc4cnccn4)C3)nc3scnc23)cc1OC` (stereo not shown) [Compound I-49, 1-(7-(3,4-Dimethoxyphenylamino)thiazolo[5,4-d]pyrimidin-5-yl)-N-(pyrazin-2-yl)piperidine-3-carboxamide], the IC50 worked out at 1520 nM.

For `COc1ccc(Nc2nc(N3CCCC(C(=O)Nc4ccc5c(c4)C(=O)NC5=O)C3)nc3scnc23)cc1OC` (stereo not shown) [Compound I-50, 1-(7-(3,4-Dimethoxyphenylamino)thiazolo[5,4-d]pyrimidin-5-yl)-N-(1,3-dioxoisoindolin-5-yl)piperidine-3-carboxamide], the IC50 is 1920 nM.

With `COc1ccc(Nc2nc(N3CCCC(C(=O)Nc4ccc(-c5nnc(S)o5)cc4)C3)nc3scnc23)cc1OC` (stereo not shown) [Compound I-51, 1-(7-(3,4-Dimethoxyphenylamino)thiazolo[5,4-d]pyrimidin-5-yl)-N-(4-(5-mercapto-1,3,4-oxadiazol-2-yl)phenyl)piperidine-3-carboxamide], the IC50 was 156 nM.

Take `COc1ccc(Nc2nc(N3CCCC(C(=O)Nc4ccc(-c5nnc(S)n5C)cc4)C3)nc3scnc23)cc1OC` (stereo not shown) [Compound I-52, 1-(7-(3,4-Dimethoxyphenylamino)thiazolo[5,4-d]pyrimidin-5-yl)-N-(4-(5-mercapto-4-methyl-4H-1,2,4-triazol-3-yl)phenyl)piperidine-3-carboxamide]: the IC50 stood at 441 nM.

Turning to `O=C(O)c1cccc(-c2nc(Nc3cccc(N4CC5(COC5)C4)c3)c3ncsc3n2)c1` [Compound I-53, 3-{7-[3-(2-Oxa-6-aza-spiro[3.3]hept-6-yl)-phenylamino]-thiazolo[5,4-d]pyrimidin-5-yl}-benzoic acid], the IC50 was determined as 3870 nM.

Take `COc1ccc(Nc2nc(N3CCC(NC(=O)c4ccc(C(=O)O)cc4)C3)nc3scnc23)nc1OC` (stereo not shown) [Compound I-55, 4-(1-(7-(5,6-Dimethoxypyridin-2-ylamino)thiazolo[5,4-d]pyrimidin-5-yl)pyrrolidin-3-ylcarbamoyl)benzoic acid]: the IC50 was 6150 nM.

`COC(=O)c1cccc(-c2nc(Nc3cccc(C(F)(F)F)c3)c3ncsc3n2)c1` [Compound I-56, Methyl 3-(7-(3-(trifluoromethyl)phenylamino)thiazolo[5,4-d]pyrimidin-5-yl)benzoate]: the IC50 turned out to be 3180 nM.

`O=C(O)c1cccc(-c2nc(Nc3cccc(C(F)(F)F)c3)c3ncsc3n2)c1` [Compound I-57, 3-[7-(3-Trifluoromethyl-phenylamino)-thiazolo[5,4-d]pyrimidin-5-yl]-benzoic acid]: the IC50 came to 4250 nM.

For the compound `COc1cc(Nc2nc(-c3cccc(C(N)=O)c3)nc3scnc23)cc(OC)c1OC` [Compound I-58, 3-[7-(3,4,5-Trimethoxy-phenylamino)-thiazolo[5,4-d]pyrimidin-5-yl]-benzamide], the IC50 was determined as 2250 nM.

With `C[C@H]1CCCN1c1cccc(Nc2nc(N3CCCC(O)C3)nc3scnc23)c1` (stereo partly drawn) [Compound I-59, 1-(7-(3-((S)-2-Methylpyrrolidin-1-yl)phenylamino)thiazolo[5,4-d]pyrimidin-5-yl)piperidin-3-ol], the IC50 turned out to be 757 nM.

`COc1cc(Nc2nc(-c3ccc(C(N)=O)cc3)nc3scnc23)cc(N2CCC[C@@H]2C)c1` [Compound I-60, 4-{7-[3-Methoxy-5-((S)-2-methyl-pyrrolidin-1-yl)-phenylamino]-thiazolo[5,4-d]pyrimidin-5-yl}-benzamide]: the IC50 came out at 1110 nM.

Consider `COc1ccc(-c2nc(Nc3cccc(N4CCC[C@@H]4C)c3)c3ncsc3n2)cn1` [Compound I-61, (S)-5-(6-Methoxypyridin-3-yl)-N-(3-(2-methylpyrrolidin-1-yl)phenyl)thiazolo[5,4-d]pyrimidin-7-amine], for which the IC50 came to 1040 nM.

For the compound `C[C@H]1CCCN1c1cccc(Nc2nc(-c3ccc(C(N)=O)cc3)nc3scnc23)c1` [Compound I-62, 4-{7-[3-((S)-2-Methyl-pyrrolidin-1-yl)-phenylamino]-thiazolo[5,4-d]pyrimidin-5-yl}-benzamide], the IC50 stood at 337 nM.

Regarding `COc1ccc(Nc2nc(-c3cccc(C(=O)Nc4ccc(C5SC(=O)NC5=O)cc4)c3)nc3scnc23)cc1OC` (stereo not shown) [Compound I-63, 3-[7-(3,4-Dimethoxy-phenylamino)-thiazolo[5,4-d]pyrimidin-5-yl]-N-[4-(2,4-dioxo-thiazolidin-5-yl)-phenyl]-benzamide], the IC50 came out at 53 nM.

On to `COc1ccc(Nc2nc(-c3ccc(C(N)=O)cc3)nc3scnc23)cc1OC` [Compound I-64, 4-[7-(3,4-Dimethoxy-phenylamino)-thiazolo[5,4-d]pyrimidin-5-yl]-benzamide], for which the IC50 came out at 113 nM.

Turning to `C[C@H]1CCCN1c1cccc(Nc2nc(-c3ccc(C(=O)NCCN(C)C)cc3)nc3scnc23)c1` [Compound I-65, (S)-N-(2-(Dimethylamino)ethyl)-4-(7-(3-(2-methylpyrrolidin-1-yl)phenylamino)thiazolo[5,4-d]pyrimidin-5-yl)benzamide], the IC50 amounted to 351 nM.
